Data published in publication PMC12016938, “A small molecule PKCε inhibitor reduces hyperalgesia induced by paclitaxel or opioid withdrawal” (JCI Insight, 2025).
≈ marks a conversion by molar mass, not a printed value. Where “and” joins values, the source holds several entries; their conditions need not be identical. Equal entries are not always repeated. Where two headings read alike, the source gives them in different places.

Key:
PKCζ = target: T1, PKCζ (Homo sapiens, UniProt Q05513); test: Lance-FRET kinase assay, PKCζ; assay type: biochemical; conditions: Figure 1B
T1 construct: purchased SignalChem Biotech
Procedure: (§1) Kinase assays. CP612 was assayed against His-AVI–tagged human PKCε (1 nM) produced in Sf9 cells, and ROCK1 (Carna Biosciences; 5 nM) using the Lance-FRET kinase assay system (PerkinElmer Revvity). Other human recombinant PKCs (SignalChem Biotech) were assayed in triplicate at the following concentrations: PKCβII 1.6 nM, PKCγ 500 pM, PKCδ 5 nM, PKCθ 500 pM, and PKCζ 500 pM. PKCs were incubated in a 15 μL reaction volume with kinase buffer (20 mM Tris-HCL [pH 7.4], 10 mM MgCl2, 0.25 mM EGTA, 0.1 mg/mL BSA, and 0.15% Triton X-100), 50 nM ULight-labeled CREBtide […] (PerkinElmer, TRF0107, Revvity), and test compound. […] After incubation at 27°C for another 60 minutes, phosphorylation was detected using a FlexStation 3 Microplate Reader (Molecular Devices) in LANCE TR-FRET mode (excitation = 340 nm, emission = 665 nm) and expressed as relative fluorescence units (RFU). The percentage of inhibition was calculated as: (signal without test compound − signal with test compound)/(signal without test compound − signal without ATP) × 100. […]
(§2) Kinase assays used 11-point concentration-response curves and results were analyzed by nonlinear regression using Prism 9 (GraphPad Software) to determine IC50 values. […] Scores for pain threshold, conditioned place preference, and self-administration were analyzed by ANOVA using the following factors. […]

[1] = Kinetic aqueous solubility; assay type: physicochemical
Procedure: Kinetic aqueous solubility. Test compounds were diluted 100-fold from 1 mM DMSO stocks into 0.1M phosphate-buffered saline (PBS) in triplicate. Diluted samples were shaken at room temperature at 600 rpm for 3 hours and then filtered by centrifugation (0.2 μm, PVDF) at 1,000g for 1 minute. Aliquots of 100 μL were diluted into 3 volumes of acetonitrile for extraction, vortexed for 15 seconds, centrifuged at 16,000g for 10 minutes at 4°C, and then analyzed by liquid chromatography–mass spectrometry (LC-MS).

[2] = system: morphine self-administration
ROCK1 = ROCK1 (Homo sapiens, UniProt Q13464); test: Lance-FRET kinase assay, ROCK1; assay type: biochemical; design: purchased Carna Biosciences; conditions: mean of all runs (count 42 CP612; 38 CIDD-0072424); 2.5 μM ATP; read-out: IC50 (nM) [Enzyme: ROCK1], mean
Procedure: as §1, §2

PKCδ = PKCδ (Homo sapiens, UniProt Q05655); test: scanMax kinome panel, PKCδ; assay type: binding; design: purchased Eurofins-DiscoverX; conditions: 200 nM CP612; read-out: scanMax % of control, PKCδ
Procedure: CP612 was screened for kinome specificity at 200 nM against 468 kinases using the scanMax assay panel from Eurofins-DiscoverX. CP612 inhibited 10 other WT kinases besides PKCε, all to < 10% of control: CLK1 (CDC Like Kinase 1), CLK4, PKN1 (Protein kinase N1), PKN2, PKCδ, PKCη, PKCθ, PRKG2 (Protein Kinase CGMP-Dependent 2), ROCK1, and ROCK2.

Chain of ROCK1 (Q13464 1-477 limits assumed): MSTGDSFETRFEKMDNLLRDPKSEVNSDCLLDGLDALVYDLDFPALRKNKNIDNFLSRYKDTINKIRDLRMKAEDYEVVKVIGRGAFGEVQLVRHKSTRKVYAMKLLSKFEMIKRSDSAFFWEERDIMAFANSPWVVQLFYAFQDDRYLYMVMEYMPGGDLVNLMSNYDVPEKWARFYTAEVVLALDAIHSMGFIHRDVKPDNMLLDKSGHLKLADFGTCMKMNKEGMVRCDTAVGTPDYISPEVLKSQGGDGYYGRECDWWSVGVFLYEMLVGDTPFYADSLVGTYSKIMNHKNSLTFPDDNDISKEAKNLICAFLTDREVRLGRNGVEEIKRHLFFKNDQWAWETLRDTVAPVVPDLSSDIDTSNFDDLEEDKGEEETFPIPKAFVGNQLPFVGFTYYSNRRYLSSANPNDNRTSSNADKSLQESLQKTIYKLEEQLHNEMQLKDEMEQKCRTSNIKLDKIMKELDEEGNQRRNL
T1 sequence (Q05513 whole entry): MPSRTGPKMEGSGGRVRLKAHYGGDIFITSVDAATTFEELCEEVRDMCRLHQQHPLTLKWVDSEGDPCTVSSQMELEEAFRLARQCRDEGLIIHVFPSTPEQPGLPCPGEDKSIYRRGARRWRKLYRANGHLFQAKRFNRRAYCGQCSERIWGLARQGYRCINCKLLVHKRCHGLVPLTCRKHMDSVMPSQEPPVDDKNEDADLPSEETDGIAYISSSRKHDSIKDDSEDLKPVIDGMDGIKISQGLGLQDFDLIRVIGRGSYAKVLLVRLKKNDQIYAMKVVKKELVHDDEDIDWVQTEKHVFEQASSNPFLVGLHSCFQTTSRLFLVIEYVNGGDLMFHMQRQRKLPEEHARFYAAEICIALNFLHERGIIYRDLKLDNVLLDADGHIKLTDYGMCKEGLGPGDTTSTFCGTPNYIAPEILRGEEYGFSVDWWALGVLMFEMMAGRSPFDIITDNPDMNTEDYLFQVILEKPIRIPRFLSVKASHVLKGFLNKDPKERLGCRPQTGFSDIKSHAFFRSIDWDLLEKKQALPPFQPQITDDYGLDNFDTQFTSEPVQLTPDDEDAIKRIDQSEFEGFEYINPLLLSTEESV
Chain of PKCδ (Q05655 whole entry): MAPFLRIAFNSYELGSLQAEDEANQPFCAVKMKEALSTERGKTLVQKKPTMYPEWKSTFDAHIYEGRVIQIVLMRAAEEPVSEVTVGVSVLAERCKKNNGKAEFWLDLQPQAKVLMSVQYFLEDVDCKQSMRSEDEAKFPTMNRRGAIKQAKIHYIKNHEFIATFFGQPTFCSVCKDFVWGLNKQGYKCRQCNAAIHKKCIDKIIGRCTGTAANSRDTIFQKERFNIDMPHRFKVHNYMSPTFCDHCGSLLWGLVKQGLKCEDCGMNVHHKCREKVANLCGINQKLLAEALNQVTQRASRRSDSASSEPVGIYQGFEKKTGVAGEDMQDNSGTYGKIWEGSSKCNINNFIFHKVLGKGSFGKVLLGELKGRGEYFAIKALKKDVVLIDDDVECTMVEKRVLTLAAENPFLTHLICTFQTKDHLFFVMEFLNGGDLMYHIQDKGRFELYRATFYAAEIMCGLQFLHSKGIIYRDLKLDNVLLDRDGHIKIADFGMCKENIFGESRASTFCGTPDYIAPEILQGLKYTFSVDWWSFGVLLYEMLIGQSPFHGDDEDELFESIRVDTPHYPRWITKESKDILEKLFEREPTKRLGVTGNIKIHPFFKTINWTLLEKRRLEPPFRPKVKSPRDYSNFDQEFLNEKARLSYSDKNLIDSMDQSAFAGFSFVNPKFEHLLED

## N[C@H](CNC(=O)C1(c2ccc(Cl)cc2)CCCC1)c1ccc(C(=O)Nc2ccncc2)cc1 [CP612]
PKCζ
  Inhibition of atypical PKCζ: did not inhibit
[1]; 0.1M phosphate-buffered saline (PBS), aqueous buffer, kinetic from dmso stock, 0.1M PBS, room temperature, 3 hours, read-out: Kinetic aqueous solubility
  solubility kinetic at 3 h: 7410 ± 120 nM (≈ 3.43 µg/mL)
[1]; 0.1M phosphate-buffered saline (PBS), aqueous buffer, kinetic from dmso stock, mean of 3 samples, read-out: Kinetic aqueous solubility, Corrected (nM), Mean
  solubility kinetic at 3 h: 7410 nM (≈ 3.43 µg/mL)
[1]; 0.1M phosphate-buffered saline (PBS), aqueous buffer, kinetic from dmso stock, single sample, read-out: Kinetic aqueous solubility, Corrected
  solubility kinetic at 3 h: 7540 nM (≈ 3.49 µg/mL)
[1]; single sample, read-out: Kinetic aqueous solubility, Corrected
  solubility kinetic at 3 h: 7309.08 nM and 7388.24 nM
[2]; CP612 30 mg/kg i.p. 18 hours prior, 30 mg/kg
  Effect on morphine self-administration (breaking point and self-infusions): did not modify self-administration
[2]; rats, morphine SA 18 h after CP612, average of last 3 days, infusions
  Inf (avg last 3 days): 8 and 12
ROCK1
  IC50: 65.9 ± 10.8 nM
PKCδ
  remaining binding at 0.2 µM: < 10%
